# EP2716637A1, “MANGIFERIN AGLYCONE CRYSTAL FORM I AND PREPARATION METHOD THEREOF” (Kunming Pharmaceutical Corp., priority 2011, dated 2012)
# Read-outs that look alike come from different tables or passages of the source.
# Legend:
# [1] = Stability of solutions in alkaline phosphate buffer, content by HPLC; type: physicochemical
# Experimental: Appropriate amounts of mangiferin aglycone crystal form I and mangiferin aglycone were taken respectively, and phosphate buffer of pH 8.0, pH 9.0 and pH 10.0 were added respectively, metered to 100 ml, and were allowed to stand at 37°C, and samples were taken at 2, 4, 6, 8 and 12 hours respectively, and the content of mangiferin aglycone were measured by HPLC method. Stability of solution of mangiferin aglycone crystal form I
# [2] = Blood concentration after oral (intragastric) administration to Beagle dogs; type: in vivo; conditions: for concentration: intragastrically, 6mg/kg, solid powder, listed as Commercially available mangiferin aglycone, 6 mg/kg, read-out: Mangiferin aglycone concentration in serum
# Experimental: Solid powder of mangiferin aglycone crystal form I and commercially available mangiferin aglycone (reference substance of mangiferin aglycone, purchased from Sigma Corporation, Lot No.: 8420-201002) were administered to Beagle dogs intragastrically respectively. The dosage of administration was 6mg/kg, and arterial blood of the dogs was drawn at different time points after administration to determine the content of mangiferin aglycone (See Table 4 and Figure 6). Table 4. Comparison of blood concentrations at different time points after mangiferin aglycone samples were administered orally to Beagle dogs
# [3] = target: T1, recombinant humanized protein tyrosine phosphatase 1B (Homo sapiens, UniProt P18031); conditions: reported from CN200910184185.5; cited from earlier work
# T1 sequence (P18031 1-435): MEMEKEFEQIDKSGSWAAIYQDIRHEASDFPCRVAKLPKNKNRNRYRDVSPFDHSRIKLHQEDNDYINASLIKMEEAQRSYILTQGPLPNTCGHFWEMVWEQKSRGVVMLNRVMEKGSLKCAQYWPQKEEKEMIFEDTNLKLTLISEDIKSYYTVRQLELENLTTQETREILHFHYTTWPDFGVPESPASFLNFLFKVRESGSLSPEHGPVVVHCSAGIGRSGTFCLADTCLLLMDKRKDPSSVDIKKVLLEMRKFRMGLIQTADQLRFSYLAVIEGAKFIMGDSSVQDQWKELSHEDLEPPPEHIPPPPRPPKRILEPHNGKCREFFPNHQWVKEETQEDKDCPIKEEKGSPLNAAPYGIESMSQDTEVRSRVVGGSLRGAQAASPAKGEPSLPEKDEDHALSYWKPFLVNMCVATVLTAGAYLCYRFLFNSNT
# [4] = test system: C57BL/6 normal mice and ob/ob diabetes model mice; conditions: cited from earlier work
# [5] = test system: C57BL/6 normal mouse; conditions: reported from CN200810196777.4, cited from earlier work
smiles,measurement,setting,value
"O=c1c2cc(O)c(O)cc2oc2cc(O)cc(O)c12 [mangiferin aglycone, 1,3,6,7-tetrahydroxyxanthone]",content of mangiferin aglycone,"[1]; phosphate buffer pH8, 37°C, standing time 2h, 120 min",98.5%
same,content of mangiferin aglycone,"[1]; phosphate buffer pH8, 37°C, standing time 4h, 240 min",97.5%
same,content of mangiferin aglycone,"[1]; phosphate buffer pH8, 37°C, standing time 6h, 360 min",96.3%
same,content of mangiferin aglycone,"[1]; phosphate buffer pH8, 37°C, standing time 8h, 480 min",94.5%
same,content of mangiferin aglycone,"[1]; phosphate buffer pH8, 37°C, standing time 12h, 720 min",93.2%
same,content of mangiferin aglycone,"[1]; phosphate buffer pH9, 37°C, standing time 2h, 120 min",97.3%
same,content of mangiferin aglycone,"[1]; phosphate buffer pH9, 37°C, standing time 4h, 240 min",94.3%
same,content of mangiferin aglycone,"[1]; phosphate buffer pH9, 37°C, standing time 6h, 360 min",93.4%
same,content of mangiferin aglycone,"[1]; phosphate buffer pH9, 37°C, standing time 8h, 480 min",92.3%
same,content of mangiferin aglycone,"[1]; phosphate buffer pH9, 37°C, standing time 12h, 720 min",91.0%
same,content of mangiferin aglycone,"[1]; phosphate buffer pH10, 37°C, standing time 2h, 120 min",97.7%
same,content of mangiferin aglycone,"[1]; phosphate buffer pH10, 37°C, standing time 4h, 240 min",93.8%
same,content of mangiferin aglycone,"[1]; phosphate buffer pH10, 37°C, standing time 6h, 360 min",92.1%
same,content of mangiferin aglycone,"[1]; phosphate buffer pH10, 37°C, standing time 8h, 480 min",91.0%
same,content of mangiferin aglycone,"[1]; phosphate buffer pH10, 37°C, standing time 12h, 720 min",90.3%
same,concentration,"[2]; 0.25 hr, 15 min",666 nM
same,concentration,"[2]; 0.5 hr, 30 min",404 nM
same,concentration,"[2]; 0.75 hr, 45 min",414 nM
same,concentration,"[2]; 1 hr, 60 min",366 nM
same,concentration,"[2]; 1.5 hr, 90 min",136 nM
same,concentration,"[2]; 2 hr, 120 min",108 nM
same,concentration,"[2]; 3 hr, 180 min",100 nM
same,concentration,"[2]; 4 hr, 240 min",70.1 nM
same,concentration,"[2]; 6 hr, 360 min",52.6 nM
same,concentration,"[2]; 8 hr, 480 min",41.3 nM
same,blood concentration,"[2]; same oral dosage, compared with mangiferin aglycone crystal form I",significantly lower
same,type of inhibition,[3],competitive inhibitor
same,blood glucose of the experimental animal,[4],reduce
same,sensitivity to insulin,[4],significantly improve
same,in vivo secretion of insulin induced by glucose,[5]; C57BL/6-normal mouse,increase
same,IGTT,[5]; C57BL/6 normal mouse,significantly improve
